Literature values as cited in patent US20150338392A1, “Sterile and instantly dissolvable drug membrane and method thereof for testing drug sensitivity of antineoplastic drugs” (priority 2013, published 2015).

Experiments:
[1] = tested on: non-small cell lung cancer; conditions: clinical, background statement
invasive breast cancer = conditions: clinical, background statement

Row | Structure (SMILES) | patients who receive no obvious effect [1] | invasive breast cancer patients who are not sensitive to the drug (invasive breast cancer) [%]
1 | Nc1ccn([C@@H]2O[C@H](CO)[C@@H](O)C2(F)F)c(=O)n1 [Gemzar] | more than 60% | –
2 | COc1cccc2c1C(=O)c1c(O)c3c(c(O)c1C2=O)C[C@@](O)(C(=O)CO)C[C@@H]3O[C@H]1C[C@H](N)[C@H](O)[C@H](C)O1 [doxorubicin] | – | 50
